Test results: patent US20220213524A1, “KINASE SCREENING ASSAYS” (University of Newcastle upon Tyne, priority 2019, published 2022)

Key:
Format in all cases: cell-based
INCENP TSSph = test: Immunofluorescence microscopy and high content imaging of INCENP TSSph after acute kinase inhibition in nocodazole-arrested mitotic cells; settings: over 9 minutes; nocodazole-arrested mitotic HeLa cells, MG132 included
Source text: (§1) To confirm that Cyclin B1-Cdk1 was a bona fide kinase for INCENP S446, the inventors first conducted in vitro kinase assays. Indeed, Cyclin B1-Cdk1 efficiently phosphorylated S446 on a recombinant INCENP fragment containing residues 369-583, but not the TSS motif (S893/S894) in recombinant INCENP residues 825-918. In contrast, Aurora B was able to phosphorylate its known target, the TSS motif of INCENP, but not S446 (FIG. 4B). Furthermore, INCENP immunoprecipitated from nocodazole-arrested mitotic cells was recognized by the INCENP S446ph antibody, and this phosphorylation was sensitive to the Cdk inhibitor Roscovitine (FIG. 14). However, determining the direct substrates of Cyclin B1-Cdk1 in cells is complicated because inhibition of Cdk1 prevents mitotic entry and/or forces mitotic exit, leading to indirect effects on multiple kinase substrates. […] Aurora B relocates to the spindle midzone at the end of mitosis so, as an additional way to focus on cells still in mitosis, the inventors analyzed only cells in which Aurora B remained on chromosomes. […] Also consistent with Cyclin B1-Cdk1 being the kinase responsible, INCENP S446ph was detected on chromosomes in mitotic cells from early mitosis until metaphase when Cyclin B1-Cdk is active, but was lost at anaphase when Cyclin B is degraded (FIG. 4D). […]

INCENP S446ph [1] = test: Immunofluorescence microscopy and high content imaging of INCENP S446ph after acute kinase inhibition in nocodazole-arrested mitotic cells; settings: nocodazole-arrested mitotic HeLa cells, MG132 included
Source text: as §1

INCENP S446ph [2] = test: INCENP immunoprecipitation from nocodazole-arrested mitotic HeLa 1C8 cells and immunoblotting with INCENP S446ph antibody; settings: 100 μM, 2 h, with 20 μM MG132; nocodazole-arrested mitotic HeLa 1C8 cells; immunoblot
Experimental: HeLa 1C8 cells (Dai et al., 2005) were treated with 0.5 μg/ml nocodazole for 8 h. After collecting mitotic cells by “shake off” and replating, either 100 μM Roscovitine or DMSO (vehicle control) was added together with 20 μM MG132 in the continued presence of nocodazole. After 2 h, cell lysates were prepared in 50 mM Tris, 0.3 M NaCl, 0.5% Triton X-100, 10 mM MgCl2, 5 mM EDTA, 1 mM dithiothreitol, 1 mM PMSF, 0.1 μM okadaic acid, 10 mM NaF, 20 mM β-glycerophosphate, 0.25 U/μl benzonase nuclease, cOmplete™ Mini EDTA-free Protease Inhibitor and subjected to immunoprecipitation with rabbit anti-INCENP and Dynabeads Protein G (ThermoFisher). After washing, bound proteins were eluted by boiling in SDS-PAGE sample buffer.
SDS-PAGE was carried out using the NuPAGE Bis-Tris system (ThermoFisher). Proteins were transferred onto PVDF membranes using standard techniques. Membranes were blocked with 2.5% milk in PBS, 0.1% Tween20 for 1 h, then with primary antibodies in 2.5% milk, PBS, 0.1% Tween20 overnight at 4° C. After washing 3 times with PBS, 0.1% Tween20, they were incubated for 1 h with secondary antibodies in 2.5% milk, PBS, 0.1% Tween20, washed three times with PBS, 0.1% Tween20 and once with PBS, before development using ECL substrate (Pierce) and exposure to X-ray film. Stripping of immunoblots was carried out with Restore Western Blot Stripping Buffer (ThermoFisher).

SMILES	effect on INCENP TSSph (Aurora B phosphorylation site) (INCENP TSSph)	reduction in intensity of INCENP S446ph (INCENP S446ph [1]; over 9 minutes, only cells with Aurora B on chromosomes)	sensitivity of INCENP S446 phosphorylation to inhibitor (INCENP S446ph [2])	effect on INCENP S446ph (INCENP S446ph [1]; over the same time period (9 minutes))
O=C1NC(=NCc2cccs2)S/C1=C\c1ccc2ncccc2c1 [RO-3306]	unaffected	50%	–	–
CC[C@H](CO)Nc1nc(NCc2ccccc2)c2ncn(C(C)C)c2n1 [Roscovitine]	–	–	sensitive	–
COc1cc2c(Nc3ccc(NC(=O)c4ccccc4)cc3)ncnc2cc1OCCCN1CCOCC1 [ZM447439]	rapid decline	–	–	did not influence
